IC50 data for 20 compounds are collected here from patent US10479795B2 (Incyte Corporation, priority 2016, dated 2019).

Molecules are shown by their SMILES. Where a name gives a salt, the structure may show the parent alone.

In assay [1] the target is PI3Kγ (p110γ) Recombinant Human Protein (Homo sapiens (Human), UniProt P48736). Kind of assay: PI3K-γ Scintillation Proximity Assay. It is filed as biochemical. The conditions noted are these: read-out: PI3Kγ IC50. An outline of the steps: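 Recombinant human p110γ assayed at room temperature in 20 mM MOPS pH 6.7, 10 mM MgCl2, 5 mM DTT, 0.03% CHAPS, 2% DMSO, with 20 μM PIP2 and 2 μM ATP plus [γ-33P]ATP. Product captured on WGA SPA beads overnight and counted; IC50 fitted from % of solvent-control activity versus log inhibitor concentration.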

For assay [2], the target named is PI3Kδ (p110δ/p85α) Recombinant Human Protein (Homo sapiens (Human), UniProt O00329). Kind of assay: PI3Kδ Scintillation Proximity Assay. It is filed as biochemical. The text has this:
Example C. PI3Kδ Scintillation Proximity Assay
[γ-^33P]ATP (10 mCi/mL) and Wheat Germ Agglutinin (WGA) YSi SPA Scintillation Beads was purchased from Perkin-Elmer (Waltham, Mass.). Lipid kinase substrate, D-myo-Phosphatidylinositol 4,5-bisphosphate (PtdIns(4,5)P2)D (+)-sn-1,2-di-O-octanoylglyceryl, 3-O-phospho linked (PIP2), CAS 204858-53-7, was purchased from Echelon Biosciences (Salt Lake City, Utah). PI3Kδ (p110δ/p85α) Recombinant Human Protein was purchased from Eurofins (St Charles, Mo.). ATP, MgCl2, DTT, EDTA, MOPS and CHAPS were purchased from Sigma-Aldrich (St. Louis, Mo.).
The kinase reaction was conducted in polystyrene 384-well Greiner Bio-one white plate from Thermo Fisher Scientific in a final volume of 25 μL. Inhibitors were first diluted serially in DMSO and added to the plate wells before the addition of other reaction components. The final concentration of DMSO in the assay was 2%. The PI3Kδ assay was carried out at room temperature in 20 mM MOPS, pH 6.7, 10 mM MgCl2, 5 mM DTT and CHAPS 0.03%. Reactions were initiated by the addition of ATP, the final reaction mixture consisted of 20 μM PIP2, 2 μM ATP, 0.5 μCi [γ-^33P] ATP, 3.4 nM PI3Kδ. Reactions were incubated for 120 min and terminated by the addition of 40 μL SPA beads suspended in quench buffer: 163 mM potassium phosphate pH 7.8, 20% glycerol, 25 mM EDTA. The final concentration of SPA beads is 1.0 mg/mL. After the plate sealing, plates were shaken overnight at room temperature and centrifuged at 1500 rpm for 10 min, the radioactivity of the product was determined by scintillation counting on Topcount (Perkin-Elmer). IC50 determination was performed by fitting the curve of percent of the solvent control activity versus the log of the inhibitor concentration using the GraphPad Prism 6.0 software.
On the technique in general: SPA uses beads or plates that emit light when radiolabelled molecules are held near them.

A word on the IC50: it is the concentration at which inhibition is half-maximal.

Sequence of PI3Kδ (p110δ/p85α) Recombinant Human Protein (O00329 whole entry): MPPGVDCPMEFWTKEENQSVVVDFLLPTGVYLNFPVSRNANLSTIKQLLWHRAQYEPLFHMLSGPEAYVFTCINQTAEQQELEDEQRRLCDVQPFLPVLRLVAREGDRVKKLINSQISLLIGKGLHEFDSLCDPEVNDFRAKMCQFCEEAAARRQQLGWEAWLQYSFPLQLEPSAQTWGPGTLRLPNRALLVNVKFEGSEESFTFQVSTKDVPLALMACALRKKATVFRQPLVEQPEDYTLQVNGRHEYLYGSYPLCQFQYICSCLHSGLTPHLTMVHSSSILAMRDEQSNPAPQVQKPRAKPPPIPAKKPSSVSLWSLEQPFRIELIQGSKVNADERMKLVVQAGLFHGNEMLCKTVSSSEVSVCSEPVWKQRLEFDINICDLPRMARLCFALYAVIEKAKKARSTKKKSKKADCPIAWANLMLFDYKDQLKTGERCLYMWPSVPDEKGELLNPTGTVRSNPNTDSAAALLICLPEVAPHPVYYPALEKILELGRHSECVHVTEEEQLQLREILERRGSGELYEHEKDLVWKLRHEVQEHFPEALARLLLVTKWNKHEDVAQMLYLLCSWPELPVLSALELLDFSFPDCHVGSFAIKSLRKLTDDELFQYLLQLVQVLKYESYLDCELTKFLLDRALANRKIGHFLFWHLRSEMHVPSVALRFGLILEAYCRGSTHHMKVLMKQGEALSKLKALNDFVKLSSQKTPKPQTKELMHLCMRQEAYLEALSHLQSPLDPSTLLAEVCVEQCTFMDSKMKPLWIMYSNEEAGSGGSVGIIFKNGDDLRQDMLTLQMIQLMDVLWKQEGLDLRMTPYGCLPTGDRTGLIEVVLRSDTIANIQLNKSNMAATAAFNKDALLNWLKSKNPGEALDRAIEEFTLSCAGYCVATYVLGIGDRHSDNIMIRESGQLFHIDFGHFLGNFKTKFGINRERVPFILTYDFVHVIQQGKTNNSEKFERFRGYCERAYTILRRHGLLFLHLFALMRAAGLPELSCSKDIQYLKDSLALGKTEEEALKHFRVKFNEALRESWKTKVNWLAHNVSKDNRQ
Sequence of PI3Kδ (p110δ/p85α) Recombinant Human Protein (P27986 whole entry partner): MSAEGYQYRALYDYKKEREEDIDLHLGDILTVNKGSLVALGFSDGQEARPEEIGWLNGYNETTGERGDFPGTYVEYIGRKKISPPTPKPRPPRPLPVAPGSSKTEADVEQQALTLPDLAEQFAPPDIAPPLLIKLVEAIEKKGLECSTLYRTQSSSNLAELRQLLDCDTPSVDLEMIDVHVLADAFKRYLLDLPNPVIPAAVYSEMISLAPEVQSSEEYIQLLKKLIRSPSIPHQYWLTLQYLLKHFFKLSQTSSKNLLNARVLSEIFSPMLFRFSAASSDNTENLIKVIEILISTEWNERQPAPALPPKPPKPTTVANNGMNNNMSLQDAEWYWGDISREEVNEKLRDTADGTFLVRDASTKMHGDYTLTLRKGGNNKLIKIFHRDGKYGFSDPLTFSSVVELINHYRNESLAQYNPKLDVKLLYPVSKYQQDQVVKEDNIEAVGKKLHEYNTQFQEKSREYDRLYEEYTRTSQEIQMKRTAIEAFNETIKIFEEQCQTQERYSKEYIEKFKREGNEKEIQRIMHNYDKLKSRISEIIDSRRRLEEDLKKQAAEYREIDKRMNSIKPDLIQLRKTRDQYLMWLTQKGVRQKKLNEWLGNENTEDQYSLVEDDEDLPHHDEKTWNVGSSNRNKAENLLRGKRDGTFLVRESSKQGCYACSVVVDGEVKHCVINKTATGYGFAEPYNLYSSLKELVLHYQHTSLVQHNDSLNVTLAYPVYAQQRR
Sequence of PI3Kγ (p110γ) Recombinant Human Protein (P48736 whole entry): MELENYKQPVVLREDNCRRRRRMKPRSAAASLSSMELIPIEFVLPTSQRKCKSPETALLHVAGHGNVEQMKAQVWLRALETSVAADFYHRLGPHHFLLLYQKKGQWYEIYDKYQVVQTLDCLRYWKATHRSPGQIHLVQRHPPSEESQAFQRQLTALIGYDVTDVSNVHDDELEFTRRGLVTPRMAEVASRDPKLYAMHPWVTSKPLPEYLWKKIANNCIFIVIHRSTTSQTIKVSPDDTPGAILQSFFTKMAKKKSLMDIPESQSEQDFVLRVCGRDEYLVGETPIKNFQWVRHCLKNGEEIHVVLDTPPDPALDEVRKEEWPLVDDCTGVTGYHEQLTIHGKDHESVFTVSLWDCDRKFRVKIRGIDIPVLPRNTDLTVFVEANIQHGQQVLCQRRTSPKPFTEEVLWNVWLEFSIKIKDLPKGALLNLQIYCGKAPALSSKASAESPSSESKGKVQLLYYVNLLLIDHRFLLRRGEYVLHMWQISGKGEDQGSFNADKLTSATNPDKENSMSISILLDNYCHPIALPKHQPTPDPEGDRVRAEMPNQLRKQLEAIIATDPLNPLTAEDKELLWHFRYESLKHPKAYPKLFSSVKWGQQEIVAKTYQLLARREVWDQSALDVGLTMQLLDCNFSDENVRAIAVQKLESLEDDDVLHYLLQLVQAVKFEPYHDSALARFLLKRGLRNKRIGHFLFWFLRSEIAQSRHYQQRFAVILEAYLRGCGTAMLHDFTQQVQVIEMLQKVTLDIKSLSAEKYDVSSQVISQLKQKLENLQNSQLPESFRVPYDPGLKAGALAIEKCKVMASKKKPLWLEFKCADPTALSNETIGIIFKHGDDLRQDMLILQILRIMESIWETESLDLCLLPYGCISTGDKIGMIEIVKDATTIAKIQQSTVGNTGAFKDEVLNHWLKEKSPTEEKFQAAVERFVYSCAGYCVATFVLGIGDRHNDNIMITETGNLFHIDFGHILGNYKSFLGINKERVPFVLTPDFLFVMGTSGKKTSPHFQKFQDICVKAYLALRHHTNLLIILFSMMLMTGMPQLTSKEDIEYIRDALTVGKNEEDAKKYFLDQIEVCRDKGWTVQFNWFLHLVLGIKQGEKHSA

Regarding `Cc1ccc(S(C)(=O)=O)cc1-c1cnc2c(N)nc(C(=O)NCCCn3cccn3)cn12` [Example 457, N-(3-(1H-pyrazol-1-yl)propyl)-8-amino-3-(2-methyl-5-(methylsulfonyl)phenyl)imidazo[1,2-a]pyrazine-6-carboxamide trifluoroacetate salt], the IC50 in assay [1] and in assay [2] was 100 to 500 nM each time.

In the case of `Cc1c(F)cc(S(=O)(=O)NCC(C)(C)O)cc1-c1cnc2c(N)nc(CO)nn12` [Example 470, 3-(4-Amino-2-(hydroxymethyl)imidazo[2,1-f][1,2,4]triazin-7-yl)-5-fluoro-N-(2-hydroxy-2-methylpropyl)-4-methylbenzenesulfonamide], the IC50 in assay [1] was below 100 nM; in assay [2] it was 500 to 2000 nM.

With `COC1CCCN(S(=O)(=O)c2ccc(C)c(-c3cnc4c(N)nc(C(F)(F)F)cn34)c2)C1` (stereo not shown) [Example 313, 3-(5-((3-Methoxypiperidin-1-yl)sulfonyl)-2-methylphenyl)-6-(trifluoromethyl)imidazo[1,2-a]pyrazin-8-amine], the IC50 in assay [1] is below 100 nM; in assay [2] it was 100 to 500 nM.

Turning to `Cc1cnccc1-c1cn2c(-c3cc(S(C)(=O)=O)ccc3C)cnc2c(N)n1` [Example 473, 3-(2-Methyl-5-(methylsulfonyl)phenyl)-6-(3-methylpyridin-4-yl)imidazo[1,2-a]pyrazin-8-amine trifluoroacetate], the IC50 is below 100 nM in assay [1] and 500 to 2000 nM in assay [2].

As to `Cc1ccc(S(=O)(=O)N2CCCCC23CC3)cc1-c1cnc2c(N)ncnn12` [Example 149, 7-(5-((4-azaspiro[2.5]octan-4-yl)sulfonyl)-2-methylphenyl)imidazo[2,1-f][1,2,4]triazin-4-amine], the IC50 in assay [1] was below 100 nM; in assay [2] it was 100 to 500 nM.

As for `Cc1ccc(S(C)(=O)=O)cc1-c1cnc2c(N)nc(C(=O)NC3CCCN(CC#N)C3)cn12` (stereo not shown) [Example 459, 8-Amino-N-(1-(cyanomethyl)piperidin-3-yl)-3-(2-methyl-5-(methylsulfonyl)phenyl)imidazo[1,2-a]pyrazine-6-carboxamide trifluoroacetate salt], the IC50 is 100 to 500 nM in assay [1] and above 2000 nM in assay [2].

Take `Cc1ccc(S(=O)(=O)N2CC(N3CCOCC3)C2)cc1-c1cnc2c(N)ncnn12` [Example 146, 7-(2-methyl-5-((3-morpholinoazetidin-1-yl)sulfonyl)phenyl)imidazo[2,1-f][1,2,4]triazin-4-amine, 2TFA]: the IC50 in assay [1] was below 100 nM; in assay [2] it was 100 to 500 nM.

For the compound `Cc1ccc(S(=O)(=O)N(C)C2CC2)cc1-c1cnc2c(N)ncnn12` [Example 148, 3-(4-aminoimidazo[2,1-f][1,2,4]triazin-7-yl)-N-cyclopropyl-N,4-dimethylbenzenesulfonamide], the IC50 in assay [1] is 100 to 500 nM; in assay [2] it was 500 to 2000 nM.

On to `Cc1ccc(S(=O)(=O)N2CCC(F)(F)C(O)C2)cc1-c1cnc2c(N)ncnn12` (stereo not shown) [Example 196, 1-((3-(4-Aminoimidazo[2,1-f][1,2,4]triazin-7-yl)-4-methylphenyl)sulfonyl)-4,4-difluoropiperidin-3-ol], for which the results for the IC50 in assay [1] and in assay [2] were below 100 nM and 500 to 2000 nM, respectively.

Consider `CCOc1ncc(-c2cnc3c(N)cc(Cl)cn23)cc1NS(=O)(=O)CC` [Example 7, N-[5-(8-Amino-6-chloroimidazo[1,2-a]pyridin-3-yl)-2-ethoxypyridin-3-yl]ethanesulfonamide bis(trifluoroacetate)], for which the concentration for half-maximal inhibition (IC50) in assay [1] is 100 to 500 nM; in assay [2], 500 to 2000 nM.

For the compound `Cc1ccc(S(=O)(=O)N2CC3CC3(C#N)C2)cc1-c1cnc2c(N)nc(C(F)(F)F)cn12` (stereo not shown) [Example 302, 3-((3-(8-amino-6-(trifluoromethyl)imidazo[1,2-a]pyrazin-3-yl)-4-methylphenyl)sulfonyl)-3-azabicyclo[3.1.0]hexane-1-carbonitrile], the IC50 in assay [1] was below 100 nM; in assay [2], 500 to 2000 nM.

For the compound `Cc1ccc(S(=O)(=O)N2CCC(N(C)C)C2)cc1-c1cnc2c(N)ncnn12` (stereo not shown) [Example 204, 7-(5-((3-(Dimethylamino)pyrrolidin-1-yl)sulfonyl)-2-methylphenyl)imidazo[2,1-f][1,2,4]triazin-4-amine], the figures for the IC50 in assay [1] and in assay [2] were 100 to 500 nM and 500 to 2000 nM, respectively.

With `CC(C)(O)CNS(=O)(=O)c1ccc(C(F)(F)F)c(-c2cnc3c(N)nc(C(F)(F)F)cn23)c1` [Example 407, 3-(8-amino-6-(trifluoromethyl)imidazo[1,2-a]pyrazin-3-yl)-N-(2-hydroxy-2-methylpropyl)-4-(trifluoromethyl)benzenesulfonamide], the IC50 in assay [1] is 500 to 2000 nM; in assay [2], above 2000 nM.

Take `N#Cc1ccc(S(=O)(=O)NC23CCC(C#N)(C2)C3)cc1-c1cnc2c(N)ncnn12` [Example 260, 3-(4-Aminoimidazo[2,1-f][1,2,4]triazin-7-yl)-4-cyano-N-(4-cyanobicyclo[2.1.1]hexan-1-yl)benzenesulfonamide trifluoroacetate salt]: the IC50 in assay [1] was below 100 nM; in assay [2], 500 to 2000 nM.

For the compound `N#CC12CCC(NS(=O)(=O)c3ccc(OC(F)(F)F)c(-c4cnc5c(N)ncnn45)c3)(C1)C2` [Example 373, 3-(4-Aminoimidazo[1,2-f][1,2,4]triazin-7-yl)-N-(4-cyanobicyclo[2.1.1]hexan-1-yl)-4-(trifluoromethoxy)benzenesulfonamide trifluoroacetate salt], the IC50 in assay [1] and in assay [2] was 500 to 2000 nM throughout.

On to `Cc1ccc(S(=O)(=O)N(C)CC(F)(F)F)cc1-c1cnc2c(N)ncnn12` [Example 163, 3-(4-aminoimidazo[2,1-f][1,2,4]triazin-7-yl)-N,4-dimethyl-N-(2,2,2-trifluoroethyl)benzenesulfonamide], for which the IC50 is below 100 nM in assay [1] and 500 to 2000 nM in assay [2].

In the case of `Cc1ccc(S(C)(=O)=O)cc1-c1cnc2c(N)nc(-c3ccnn3C)cn12` [Example 479, 6-(1-Methyl-1H-pyrazol-5-yl)-3-(2-methyl-5-(methylsulfonyl)phenyl)imidazo[1,2-a]pyrazin-8-amine trifluoroacetate], the IC50 was below 100 nM in assay [1] and 100 to 500 nM in assay [2].

Take `Cc1ccc(S(=O)(=O)N2CCCC(NC(=O)C3CC3)C2)cc1-c1cnc2c(N)nc(C(F)(F)F)cn12` (stereo not shown) [Example 517, N-(1-((3-(8-Amino-6-(trifluoromethyl)imidazo[1,2-a]pyrazin-3-yl)-4-methylphenyl)sulfonyl)piperidin-3-yl)cyclopropanecarboxamide trifluoroacetate]: the IC50 in assay [1] was below 100 nM; in assay [2] it was 500 to 2000 nM.

On to `Cc1ccc(S(C)(=O)=O)cc1-c1cnc2c(N)nc(C(=O)Nc3cc(-c4ccco4)[nH]n3)cn12` [Example 454, 8-amino-N-(5-(furan-2-yl)-1H-pyrazol-3-yl)-3-(2-methyl-5-(methylsulfonyl)phenyl)imidazo[1,2-a]pyrazine-6-carboxamide trifluoroacetate salt], for which the IC50 in assay [1] is 100 to 500 nM; in assay [2] it was 500 to 2000 nM.

Consider `Cc1ccc(S(=O)(=O)N2CCC(O)CC2)cc1-c1cnc2c(N)ncnn12` [Example 66, 1-{[3-(4-Aminoimidazo[2,1-f][1,2,4]triazin-7-yl)-4-methylphenyl]sulfonyl}piperidin-4-ol], for which the figures for the IC50 in assay [1] and in assay [2] were 100 to 500 nM and above 2000 nM, respectively.
